# Legend:
# TpFLU12L = tested on: T1, TpFLU12L; assay: residual anthracene by UV absorbance at […] nm after ethyl acetate extraction; Michaelis-Menten fit; format: biochemical, Talaromyces pinophilus; details: no mediator; anthracene 50-400 mg/L, Na-acetate 50 mM pH 5, Tween 80 1%, 30 °C, laccase 3 U, 96 h
# T1 construct: native secreted enzyme purified from anthracene-induced culture (ammonium sulfate, DEAE, Sephadex G-100); blue laccase
# TlFLU1L = tested on: T2, TlFLU1L; assay: as above; format: biochemical, Trichoderma lixii; details: no mediator; anthracene 50-400 mg/L, Na-acetate 50 mM pH 5, Tween 80 1%, 30 °C, laccase 3 U, 96 h
# T2 construct: native secreted enzyme purified from anthracene-induced culture (ammonium sulfate, DEAE, Sephadex G-100); yellow laccase; 44 kDa by SDS-PAGE
structure (smiles),measurement,setting,value
c1ccc2cc3ccccc3cc2c1 [anthracene],Km (mg/L) / TpFLU12,TpFLU12L,73.3 ± 0.07 mg/L
same,Km (mg/L) / TlFLU1,TlFLU1L,173.2 ± 0.06 mg/L

# — PMC11246312, “Anthracene detoxification by Laccases from indigenous fungal strains Trichoderma lixii FLU1 and Talaromyces pinophilus FLU12” (Biodegradation, 2024)
